Where no end group is shown, it is not given here.
Tests used:
[1] = tested on: mice fed HFD; assay: novel object recognition test (ORT) in mice fed a high-fat diet; type: in vivo; conditions: MLA 0.3 mg/kg i.p. with rice-memolin 1 mg/kg p.o. once a day for 3 days, n = 3–5 (Fig. 4)
Method: Male ddY mice (11 weeks old) were obtained from SLC (Shizuoka, Japan). They were kept in a temperature-controlled room (23 °C) on a daily 12-h light: 12-h dark cycle. After one week-acclimatization, these mice were fed MF pellets (Oriental Yeast, Tokyo, Japan) as control diet, HFD60 pellets (Oriental Yeast Co., Ltd, Japan) as high-fat diet, or HFD 60 pellets containing 0.04% rice bran protein digest (specially ordered from Oriental Yeast Co., Ltd, Japan) with free access to water for 7 days. The component of HFD60 was previously reported. Animal experiments were conducted in accordance with the Fundamental Guidelines for Proper Conduct of Animal Experiment and Related Activities in Academic Research Institutions under the jurisdiction of the Ministry of Education, Culture, Sports, Science and Technology of Japan, and were approved by the Committee on Animal Experimentation at Kyoto University, Japan. All experiments were approved by the Kyoto University Ethics Committee for Animal Research Use, permission code was R3-13. […]
Cognitive function was evaluated on Day 6 and 7 using two behavioral pharmacological tests: novel object recognition test (ORT) and object location test (OLT). […] Using the ORT, effect of donepezil, a drug currently used for the relief of cognitive deficits associated with mild to moderate Alzheimer’s diseases, was evaluated. […]

[2] = tested on: pepsin and pancreatin; assay: pepsin and pancreatin digestion of VYTPG with LCMS analysis; type: in vitro ADME; conditions: simulated gastrointestinal digestion; each enzyme treatment time 1 h; LCMS analysis (Supplemental Fig. S1)
Method: Pepsin and pancreatin digests of VYTPG and LCMS analysis were performed in a similar manner to previous studies (Shobako et al.) with slight modifications to simulate peptide bioavailability. Each enzyme treatment time was 1 h.

In the case of `CCN1C[C@]2(COC(=O)c3ccccc3N3C(=O)C[C@H](C)C3=O)CC[C@H](OC)[C@@]34[C@@H]5C[C@H]6[C@H](OC)[C@@H]5[C@](O)(C[C@@H]6OC)[C@@](O)([C@@H](OC)[C@H]23)[C@@H]14` [MLA, methyllycaconitine], the “effect on the rice-memolin-induced improvement in the novel ORT” value [1] was “inhibited the effects of rice-memolin”.

In the case of VYTPG [VYTPG, Val-Tyr-Thr-Pro-Gly], the “stability to digestion by pepsin and pancreatin” value [2] was “existed even after digestion by pepsin and pancreatin”.

— PMC9938899, “Rice-memolin, a novel peptide derived from rice bran, improves cognitive function after oral administration in mice” (Scientific Reports, 2023)
